The source of these data is patent US20040209841A1, “Association compound of trehalose or maltitol with metal ion compound” (priority 2001, published 2004).

Data set [1] can be described thus: Hygroscopicity (deliquescence) test. In kind it is physicochemical. The following applies: for Moisture content/g-sample: 25° C. The procedure: A dried bittern powder was prepared by drying bittern solution in vacuo at 60° C. for 15 hours, pulverized, and dried in a usual manner for use as a control. The moisture content (weight of moisture per one gram of the sample) of each sample was measured by conventional drying loss method. […] The weight of the content in each cup was measured at the initiation of preservation (0 day preservation), and 1, 2, 4, and 7 days after the initiation. The amount of moisture per one gram of each at sample after 1 to 7 days preservation was calculated based on the assumption that the increased amount measured to that of 0 day preservation was the amount of moisture absorbed by each sample.

The nature of data set [2]: Change of solubility of metal ion compounds by the association with trehalose (precipitation of crystal). In kind it is physicochemical. The procedure: The changes of solubility in water of trehalose and/or metal ion compounds were examined under coexistence of trehalose and metal ion compounds. […] Solutions prepared by dissolving the same amount of trehalose only or that of metal ion compounds only were prepared as controls. After dissolving the contents completely, all the beakers were allowed to stand at room temperature (25° C.) for 24 hours. Successively, precipitation of crystals was judged by macroscopic observation. In the case of precipitating crystals, the formed crystals were collected and analyzed for those component(s) by conventional method.

The nature of data set [3]: Suppressing effect on the oxidation of ferrous ion (Nitroso-DMAP method). The following applies: for Amount of Fe2+ ion (mg/ml) After light-irradiation: 37° C. four hours, light of about 9,000 luxes, 5% (w/v) saccharide; for Amount of Fe2+ ion (mg/ml) Before light-irradiation: ferrous chloride 1% (w/v) as ferrous ion + 5% (w/v) saccharide. Format: physicochemical. As to the method:
Generally, ferrous ion (divalent, Fe^2+) and ferric ion (trivalent, Fe^3+) are known as ions of iron element. Ferrous ion is easily oxidized with light or heat and converted to ferric ion. Effects of trehalose and maltitol on the phenomenon were investigated as follows. An aqueous solution, comprising ferrous chloride (FeCl2) tetrahydrate corresponding to the amount of 1% (w/v) as ferrous ion, and comprising trehalose or maltitol corresponding to the amount of 5% (w/v), d.s.b., was prepared as a test solution. While, a solution, comprising ferrous chloride only with the same concentration to the test solution, was prepared as a control solution. After preparing the test and control solutions, small portions of which were sampled respectively, and the amount of ferrous ion was measured by the Nitroso-DMAP method described later. Successively, 10 ml each of the test and control solution was placed separately in a 20 ml-vial and sealed. After preserving these vials at 37° C. for four hours with irradiating a light of about 9,000 luxes, the amount of ferrous ion in each solution was measured by the Nitroso-DMAP method. Measurement by the Nitroso-DMAP method was carried out as follows. After diluting the test or control solution accurately by 100-fold, 0.5 ml of the dilute was placed in a 50 ml-volumetric flask. […] After the above procedure, the absorbance at 750 nm (within the visible light range) of the solution was measured. The standard solutions, prepared by diluting stepwise a ferrous chloride solution with known concentration, were used for the measurement in the same manner to obtain a standard curve for quantitative analysis. The amount of ferrous ion of the test or the control solution was determined with the standard curve.

Data set [4] is described as follows: Suppressing effect on the deterioration of ascorbic acid under the presence of metal ion (degree of coloring). The following applies: 50° C.; for Degree of coloring (Abs. at 420 nm) Preserved for 96 hrs: 14.8 mM AsA + 10 mM FeCl2 + 100 mM saccharide. In kind it is physicochemical. The procedure: L-Ascorbic acid deteriorates rapidly by the oxidative degradation in the presence of iron and copper ions and causes the browning. The effects of trehalose and maltitol on the phenomenon were investigated as follows. Ten kinds of aqueous solutions having respective compositions described in Table 12 were prepared. Aqueous solutions of L-ascorbic acid alone or L-ascorbic acid and metal ion compounds were used as controls. The test solutions were prepared by adding trehalose or maltitol to the control solutions. Ten milliliters of each of these test and control solutions were placed into different 20 ml-vials and sealed. The vials were preserved at 50° C. The control and test solutions, containing ferrous chloride, and those containing ferric chloride or copper sulfate were preserved for 96 hours and 40 hours, respectively. After the preservation, the degree of coloring of each solution was measured. In the case of a control solution containing L-ascorbic acid alone, the degrees of coloring were measured at the preservation periods of 40 hours and 96 hours. The absorbance at 420 nm (within the visible light range) of each sample was measured as the degree of coloring.

For data set [5] the following is noted: pH 3.5. As to the method: Effects of trehalose, maltitol, and other saccharides on the solubilities of calcium-organic acid salts were investigated as follows. […] Successively, five grams of commercially available calcium DL-lactate pentahydrate or calcium gluconate monohydrate, used as calcium-organic acid salts, were added to each saccharide solution, followed by suspension. Thereafter, the pH of each solution was adjusted to 3.5, and the solution was filled up to give a volume of 50 ml with deionized water. After stirring at 25° C. for 16 hours, insoluble calcium-organic acid salts were removed by centrifuging (15,000 rpm for 30 minutes). The pHs of the resulting supernatants were measured. The calcium concentrations of the supernatant were measured using an atomic adsorption photometer described in Experiment 5. The solution prepared with no saccharide was also measured for calcium concentration in the same manner as control.

The mark [6] stands for this setting: 0.1 mole metal ion compound only, 30 grams of water, 25° C. 24 hours.
[7] abbreviates: 14.8 mM AsA + 10 mM CuSO4 + 100 mM saccharide.
[8] abbreviates: 14.8 mM AsA + 10 mM FeCl3 + 100 mM saccharide.

Like-named read-outs stand apart in the source and are kept apart here.

With `O.O.[Ca+2].[Cl-].[Cl-]` [CaCl2 · 2H2O, calcium chloride dihydrate], the “moisture content (weight of moisture per one gram of the sample)” value in data set [1] (before preservation, drying loss method) is 0.245 g. For the same compound, the “Moisture content/g-sample” value was 0.245 g in data set [1] (relative humidity 33.0%, 0 day); 0.289 g in data set [1] (relative humidity 33.0%, 1 day); 0.312 g in data set [1] (relative humidity 33.0%, 2 days); 0.343 g in data set [1] (relative humidity 33.0%, 3 days); 0.364 g in data set [1] (relative humidity 33.0%, 7 days); 0.245 g in data set [1] (relative humidity 52.8%, 0 day). The “Moisture content/g-sample” value in data set [1] (relative humidity 52.8%, 1 day) was found to be 0.319 g; in data set [1] (relative humidity 52.8%, 2 days), 0.359 g; in data set [1] (relative humidity 52.8%, 3 days), 0.405 g; in data set [1] (relative humidity 52.8%, 7 days), 0.430 g.

Regarding `[Cl][Cu]` [Cuprous chloride, cuprous chloride dihydrate], in data set [2] (setting [6]), the “Precipitation of crystal In the absence of trehalose” value is “Precipitated”.

As for `O.O.O.O.[Cl][Fe][Cl]` [Ferrous chloride, ferrous chloride tetrahydrate], the “Precipitation of crystal In the absence of trehalose” value in data set [2] (setting [6]) is recorded as “Precipitated”.

For `OC[C@@H](O)[C@@H](O[C@H]1O[C@H](CO)[C@@H](O)[C@H](O)[C@H]1O)[C@H](O)[C@@H](O)CO` [Maltitol, maltitol], in data set [3], the “Amount of Fe2+ ion (mg/ml) After light-irradiation” value amounted to 4.3 mg/mL and the “Amount of Fe2+ ion (mg/ml) Before light-irradiation” value came out at 10.2 mg/mL. Further, in data set [4] (setting [7]), the “Degree of coloring (Abs. at 420 nm) Preserved for 40 hrs” value (shortened to “Degree of coloring … for 40 hrs”) was 0.258. Moreover, the “Degree of coloring (Abs. at 420 nm) Preserved for 96 hrs” value in data set [4] was determined as 0.291. Also, in data set [4] (setting [8]), the “Degree of coloring … for 40 hrs” value was determined as 0.198. Further, in data set [5], the “Relative conc. (%), Calcium gluconate” value is on record as 128%; the “Relative conc. (%), Calcium lactate” value is 123%; the “increase of calcium concentration in the supernatant in comparison with control, calcium gluconate” value was 28%; the “increase of calcium concentration in the supernatant in comparison with control, calcium lactate” value amounted to 23%.

With `O.O.O.O.[Cl][Mn][Cl]` [Manganese chloride, manganese chloride tetrahydrate], in data set [2] (0.1 mole metal ion compound + 0.1 mole trehalose, 30 grams of water, room temperature (25° C.) 24 hours, macroscopic observation), the “Precipitation of crystal In the presence of trehalose” value was “None”. The “Precipitation of crystal In the absence of trehalose” value in data set [2] (setting [6]) is listed as “Precipitated”.

In the case of `O.O.O.O.O.O.[Cl][Ni][Cl]` [Nickel chloride, nickel chloride hexahydrate], in data set [2], the “Precipitation of crystal In the absence of trehalose” value was “Precipitated” and the “Precipitation of crystal In the presence of trehalose” value is on record as “None”.

With `OC[C@H]1O[C@H](O[C@H]2O[C@H](CO)[C@@H](O)[C@H](O)[C@H]2O)[C@H](O)[C@@H](O)[C@@H]1O` [Trehalose, α,α-trehalose], in data set [3], the “Amount of Fe2+ ion (mg/ml) After light-irradiation” value is 4.4 mg/mL and the “Amount of Fe2+ ion (mg/ml) Before light-irradiation” value amounted to 10.1 mg/mL. Further, the “Degree of coloring … for 40 hrs” value in data set [4] (setting [7]) amounted to 0.311. Besides, the “Degree of coloring (Abs. at 420 nm) Preserved for 96 hrs” value in data set [4] worked out at 0.380. Besides, the “Degree of coloring … for 40 hrs” value in data set [4] (setting [8]) was determined as 0.226. Also, in data set [5] (16 h, 100 mg/ml), the “Relative conc. (%), Calcium gluconate” value is reported as 112%; the “Relative conc. (%), Calcium lactate” value worked out at 129%; the “increase of calcium concentration in the supernatant in comparison with control, calcium gluconate” value came out at 12%; the “increase of calcium concentration in the supernatant in comparison with control, calcium lactate” value was 29%.
